What was measured:
[1] = system: wild-type EGFR overexpressing Ba/F3 cells; assay: Growth inhibition of Ba/F3 cells engineered to overexpress wild-type EGFR (CellTiter-Glo luminescence); type: cell-based; conditions: Mus musculus, BaF3, 72 hours, concentrations 10000 to 8 nM, read-out: Ba/F3 EGFR^WT GI50 class
Procedure, shortened: (§1)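 Ba/F3 cells overexpressing HER2 A775_G776insYVMA (1000–0.32 nM) or wild-type EGFR (10000–8 nM) treated 72 h at 37°C in RPMI/10% FBS. Viability by CellTiter-Glo luminescence; GI50 by nonlinear regression with untreated growth set at 100%.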

[2] = system: Ba/F3 HER2 A775insYVMA; assay: Growth inhibition of Ba/F3 cells engineered to overexpress HER2 A775_G776insYVMA (CellTiter-Glo luminescence); type: cell-based; conditions: Mus musculus, BaF3, 72 hours, concentrations 1000 to 0.32 nM, read-out: Ba/F3 HER2^YVMA GI50 class
Procedure, shortened: as §1

| GI50 [1] [nM] | GI50 [2] [nM] | Structure (SMILES) |
| --- | --- | --- |
| 1000 to 5000 | < 100 | Cc1cc(Nc2ncnc3ccc(/C=C/CNC(=O)/C=C/CN4CCCCC4)nc23)ccc1Oc1ccc2c(c1)ncn2C [Example 59, (E)-N-((E)-3-(4-((3-methyl-4-((1-methyl-1H-benzo[d]imidazol-5-yl)oxy)phenyl)amino)pyrido[3,2-d]pyrimidin-6-yl)allyl)-4-(piperidin-1-yl)but-2-enamide] |
| > 5000 | < 100 | Cc1cc(Nc2ncnc3ccc(/C=C/CNC(=O)/C=C/CN4CCOCC4)nc23)ccc1Oc1ccc2c(c1)ncn2C [Example 60, (E)-N-((E)-3-(4-((3-methyl-4-((1-methyl-1H-benzo[d]imidazol-5-yl)oxy)phenyl)amino)pyrido[3,2-d]pyrimidin-6-yl)allyl)-4-morpholinobut-2-enamide] |
| 1000 to 5000 | < 100 | Cc1cc(Nc2ncnc3ccc(/C=C/CN(C)C(=O)/C=C/CN4CCCCC4)nc23)ccc1Oc1ccc2c(c1)ncn2C [Example 61, (E)-N-methyl-N-((E)-3-(4-((3-methyl-4-((1-methyl-1H-benzo[d]imidazol-5-yl)oxy)phenyl)amino)pyrido[3,2-d]pyrimidin-6-yl)allyl)-4-(piperidin-1-yl)but-2-enamide] |
| > 5000 | 100 to 1000 | Cc1cc(Nc2ncnc3ccc(/C=C/CN(C)C(=O)/C=C/CN4CCOCC4)nc23)ccc1Oc1ccc2c(c1)ncn2C [Example 62, (E)-N-methyl-N-((E)-3-(4-((3-methyl-4-((1-methyl-1H-benzo[d]imidazol-5-yl)oxy)phenyl)amino)pyrido[3,2-d]pyrimidin-6-yl)allyl)-4-morpholinobut-2-enamide] |
| 1000 to 5000 | 100 to 1000 | C=CC(=O)N(C)c1cccc(/C=C/c2ccc3ncnc(Nc4ccc(Oc5ccc6c(c5)ncn6C)c(C)c4)c3n2)c1 [Example 63, (E)-N-methyl-N-(3-(2-(4-((3-methyl-4-((1-methyl-1H-benzo[d]imidazol-5-yl)oxy)phenyl)amino)pyrido[3,2-d]pyrimidin-6-yl)vinyl)phenyl)acrylamide] |
| > 5000 | 100 to 1000 | C=CC(=O)Nc1cccc(/C=C/c2ccc3ncnc(Nc4ccc(Oc5ccc6c(c5)ncn6C)c(C)c4)c3n2)c1 [Example 64, (E)-N-(3-(2-(4-((3-methyl-4-((1-methyl-1H-benzo[d]imidazol-5-yl)oxy)phenyl)amino)pyrido[3,2-d]pyrimidin-6-yl)vinyl)phenyl)acrylamide] |
| 100 to 1000 | < 100 | C=CC(=O)N(C)CC#Cc1ccc2ncnc(Nc3ccc(Oc4ccn5ncnc5c4)c(C)c3)c2c1 [Example 65, N-(3-(4-((4-([1,2,4]triazolo[1,5-a]pyridin-7-yloxy)-3-methylphenyl)amino)quinazolin-6-yl)prop-2-yn-1-yl)-N-methylacrylamide] |
| 1000 to 5000 | 1000 to 5000 | C=CC(=O)N(C)CC#Cc1cnc2ncnc(Nc3ccc(Oc4ccn5ncnc5c4)c(C)c3)c2c1 [Example 66, N-(3-(4-((4-([1,2,4]triazolo[1,5-a]pyridin-7-yloxy)-3-methylphenyl)amino)pyrido[2,3-d]pyrimidin-6-yl)prop-2-yn-1-yl)-N-methylacrylamide] |
| 100 to 1000 | 100 to 1000 | C=CC(=O)N(C)CC#Cc1cc2c(Nc3ccc(Oc4ccn5ncnc5c4)c(C)c3)ncnc2cn1 [Example 67, N-(3-(4-((4-([1,2,4]triazolo[1,5-a]pyridin-7-yloxy)-3-methylphenyl)amino)pyrido[3,4-d]pyrimidin-6-yl)prop-2-yn-1-yl)-N-methylacrylamide] |
| 100 to 1000 | < 100 | C=CC(=O)N(C)CC#Cc1ccc2ncnc(Nc3ccc(Oc4ccn5ncnc5c4)c(C)c3)c2n1 [Example 68, N-(3-(4-((4-([1,2,4]triazolo[1,5-a]pyridin-7-yloxy)-3-methylphenyl)amino)pyrido[3,2-d]pyrimidin-6-yl)prop-2-yn-1-yl)-N-methylacrylamide] |
| 100 to 1000 | 100 to 1000 | C=CC(=O)N(C)CC#Cc1ncc2ncnc(Nc3ccc(Oc4ccn5ncnc5c4)c(C)c3)c2n1 [Example 69, N-(3-(8-((4-([1,2,4]triazolo[1,5-a]pyridin-7-yloxy)-3-methylphenyl)amino)pyrimido[5,4-d]pyrimidin-2-yl)prop-2-yn-1-yl)-N-methylacrylamide] |
| 1000 to 5000 | 100 to 1000 | C=CC(=O)N(C)CC#Cc1ccc2ncc(C#N)c(Nc3ccc(Oc4ccn5ncnc5c4)c(C)c3)c2c1 [Example 70, N-(3-(4-((4-([1,2,4]triazolo[1,5-a]pyridin-7-yloxy)-3-methylphenyl)amino)-3-cyanoquinolin-6-yl)prop-2-yn-1-yl)-N-methylacrylamide] |
| 1000 to 5000 | 100 to 1000 | C=CC(=O)N(C)CC#Cc1ccc2ncnc(Nc3ccc(Oc4ccc5c(c4)ncn5C)c(C)c3)c2n1 [Example 71, N-methyl-N-(3-(4-((3-methyl-4-((1-methyl-1H-benzo[d]imidazol-5-yl)oxy)phenyl)amino)pyrido[3,2-d]pyrimidin-6-yl)prop-2-yn-1-yl)acrylamide] |
| 1000 to 5000 | 1000 to 5000 | C=CC(=O)N(C)CC#Cc1cc2c(Nc3ccc(Oc4ccn5ncnc5c4)c(C)c3)ncnc2cc1OC [Example 73, N-(3-(4-((4-([1,2,4]triazolo[1,5-a]pyridin-7-yloxy)-3-methylphenyl)amino)-7-methoxyquinazolin-6-yl)prop-2-yn-1-yl)-N-methylacrylamide] |
| < 100 | < 100 | C=CC(=O)N1CCC[C@@H]1C#Cc1ccc2ncnc(Nc3ccc(Oc4ccn5ncnc5c4)c(C)c3)c2c1 [Example 74, (R)-1-(2-((4-((4-([1,2,4]triazolo[1,5-a]pyridin-7-yloxy)-3-methylphenyl)amino)quinazolin-6-yl)ethynyl)pyrrolidin-1-yl)prop-2-en-1-one] |
| 100 to 1000 | < 100 | C=CC(=O)N1CCC[C@H]1C#Cc1ccc2ncnc(Nc3ccc(Oc4ccn5ncnc5c4)c(C)c3)c2c1 [Example 75, (S)-1-(2-((4-((4-([1,2,4]triazolo[1,5-a]pyridin-7-yloxy)-3-methylphenyl)amino)quinazolin-6-yl)ethynyl)pyrrolidin-1-yl)prop-2-en-1-one] |
| 100 to 1000 | < 100 | C=CC(=O)N1CCCC[C@@H]1C#Cc1ccc2ncnc(Nc3ccc(Oc4ccn5ncnc5c4)c(C)c3)c2c1 [Example 76, (R)-1-(2-((4-((4-([1,2,4]triazolo[1,5-a]pyridin-7-yloxy)-3-methylphenyl)amino)quinazolin-6-yl)ethynyl)piperidin-1-yl)prop-2-en-1-one] |
| < 100 | < 100 | C=CC(=O)N1CCCC[C@H]1C#Cc1ccc2ncnc(Nc3ccc(Oc4ccn5ncnc5c4)c(C)c3)c2c1 [Example 77, (S)-1-(2-((4-((4-([1,2,4]triazolo[1,5-a]pyridin-7-yloxy)-3-methylphenyl)amino)quinazolin-6-yl)ethynyl)piperidin-1-yl)prop-2-en-1-one] |
| 100 to 1000 | < 100 | C=CC(=O)N1CC[C@@H]1C#Cc1ccc2ncnc(Nc3ccc(Oc4ccn5ncnc5c4)c(C)c3)c2c1 [Example 78, (R)-1-(2-((4-((4-([1,2,4]triazolo[1,5-a]pyridin-7-yloxy)-3-methylphenyl)amino)quinazolin-6-yl)ethynyl)azetidin-1-yl)prop-2-en-1-one] |
| 1000 to 5000 | 1000 to 5000 | C=CC(=O)N1CC[C@H]1C#Cc1ccc2ncnc(Nc3ccc(Oc4ccn5ncnc5c4)c(C)c3)c2c1 [Example 79, (S)-1-(2-((4-((4-([1,2,4]triazolo[1,5-a]pyridin-7-yloxy)-3-methylphenyl)amino)quinazolin-6-yl)ethynyl)azetidin-1-yl)prop-2-en-1-one] |
| 100 to 1000 | < 100 | C=CC(=O)N1CCC[C@@H]1C#Cc1ccc2ncnc(Nc3ccc(Oc4ccn5ncnc5c4)c(C)c3)c2n1 [Example 80, (R)-1-(2-((4-((4-([1,2,4]triazolo[1,5-a]pyridin-7-yloxy)-3-methylphenyl)amino)pyrido[3,2-d]pyrimidin-6-yl)ethynyl)pyrrolidin-1-yl)prop-2-en-1-one] |
| 100 to 1000 | < 100 | C=CC(=O)N1CCC[C@H]1C#Cc1ccc2ncnc(Nc3ccc(Oc4ccn5ncnc5c4)c(C)c3)c2n1 [Example 81, (S)-1-(2-((4-((4-([1,2,4]triazolo[1,5-a]pyridin-7-yloxy)-3-methylphenyl)amino)pyrido[3,2-d]pyrimidin-6-yl)ethynyl)pyrrolidin-1-yl)prop-2-en-1-one] |
| 100 to 1000 | < 100 | C=CC(=O)N1CCCC[C@@H]1C#Cc1ccc2ncnc(Nc3ccc(Oc4ccn5ncnc5c4)c(C)c3)c2n1 [Example 82, (R)-1-(2-((4-((4-([1,2,4]triazolo[1,5-a]pyridin-7-yloxy)-3-methylphenyl)amino)pyrido[3,2-d]pyrimidin-6-yl)ethynyl)piperidin-1-yl)prop-2-en-1-one] |
| < 100 | < 100 | C=CC(=O)N1CCC[C@@H]1C#Cc1ncc2ncnc(Nc3ccc(Oc4ccn5ncnc5c4)c(C)c3)c2n1 [Example 83, (R)-1-(2-((8-((4-([1,2,4]triazolo[1,5-a]pyridin-7-yloxy)-3-methylphenyl)amino)pyrimido[5,4-d]pyrimidin-2-yl)ethynyl)pyrrolidin-1-yl)prop-2-en-1-one] |
| 100 to 1000 | < 100 | C=CC(=O)N1CCC[C@H]1C#Cc1ncc2ncnc(Nc3ccc(Oc4ccn5ncnc5c4)c(C)c3)c2n1 [Example 84, (S)-1-(2-((8-((4-([1,2,4]triazolo[1,5-a]pyridin-7-yloxy)-3-methylphenyl)amino)pyrimido[5,4-d]pyrimidin-2-yl)ethynyl)pyrrolidin-1-yl)prop-2-en-1-one] |

| Structure (SMILES) | GI50 [1] [nM] | GI50 [2] [nM] |
| --- | --- | --- |
| C=CC(=O)N(C)CC#Cc1ncc2ncnc(Nc3ccc(Oc4ccc5c(c4)ncn5C)c(C)c3)c2n1 [Example 72] | < 100 | 100 to 1000 |
